Experimental findings from patent US12084436B2, “Heterocyclic compound” (Takeda Pharmaceutical Company Limited, priority 2019, dated 2024) are described below.

The test has as its target T1, HDAC6 enzyme (Homo sapiens, UniProt Q9UBN7).
T1 construct: prepared by transducing full length HDAC6 gene into Sf-9 insect cells; GST; purchased SignalChem; host or cells: Sf-9 insect cells
T1 sequence (Q9UBN7 1-1215): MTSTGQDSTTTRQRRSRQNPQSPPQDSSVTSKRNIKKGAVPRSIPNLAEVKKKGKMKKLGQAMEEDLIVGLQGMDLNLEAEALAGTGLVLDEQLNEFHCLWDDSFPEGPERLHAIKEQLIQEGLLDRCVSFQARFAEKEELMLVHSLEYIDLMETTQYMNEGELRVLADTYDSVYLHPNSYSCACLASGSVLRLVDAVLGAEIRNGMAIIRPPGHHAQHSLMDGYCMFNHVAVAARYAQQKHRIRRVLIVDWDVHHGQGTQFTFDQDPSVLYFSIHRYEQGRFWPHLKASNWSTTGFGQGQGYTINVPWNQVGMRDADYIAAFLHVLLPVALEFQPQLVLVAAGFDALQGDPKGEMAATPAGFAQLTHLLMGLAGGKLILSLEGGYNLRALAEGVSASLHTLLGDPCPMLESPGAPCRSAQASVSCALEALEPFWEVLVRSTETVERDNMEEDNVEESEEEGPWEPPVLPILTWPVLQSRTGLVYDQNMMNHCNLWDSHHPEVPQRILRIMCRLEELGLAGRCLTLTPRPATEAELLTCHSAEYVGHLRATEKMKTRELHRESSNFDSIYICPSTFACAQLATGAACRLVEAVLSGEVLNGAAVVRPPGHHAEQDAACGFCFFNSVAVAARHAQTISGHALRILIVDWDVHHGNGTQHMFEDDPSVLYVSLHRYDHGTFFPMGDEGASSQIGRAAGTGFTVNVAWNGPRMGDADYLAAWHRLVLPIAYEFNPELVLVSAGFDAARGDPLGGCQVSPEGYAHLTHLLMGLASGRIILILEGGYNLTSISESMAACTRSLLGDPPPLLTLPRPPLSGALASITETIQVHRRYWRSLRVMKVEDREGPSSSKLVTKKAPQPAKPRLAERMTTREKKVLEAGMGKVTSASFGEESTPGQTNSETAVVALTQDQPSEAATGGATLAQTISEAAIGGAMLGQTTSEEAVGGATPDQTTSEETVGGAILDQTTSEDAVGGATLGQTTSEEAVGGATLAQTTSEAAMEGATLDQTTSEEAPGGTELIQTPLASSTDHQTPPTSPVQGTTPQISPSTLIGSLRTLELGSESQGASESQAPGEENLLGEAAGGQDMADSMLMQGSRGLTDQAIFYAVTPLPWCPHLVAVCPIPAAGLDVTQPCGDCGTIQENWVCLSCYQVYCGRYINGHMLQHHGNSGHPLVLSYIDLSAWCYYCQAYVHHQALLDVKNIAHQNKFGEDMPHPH
The test can be described thus: HDAC6 enzyme inhibitory assay (HDAC-Glo I/II Assay kit, luminescence). The test is classed as biochemical. Conditions: 10 μM test compound, wells without enzyme = 100% inhibition; for inhibition at 10 µM: read-out: HDAC6 inhibitory rate (%) (10 μM). As for the experimental part: HDAC6 Enzyme Inhibitory Assay
HDAC6 enzyme prepared by transducing full length HDAC6 gene into Sf-9 insect cells and purifying by GST affinity column were purchased from SignalChem. Using this enzyme, HDAC6 enzyme inhibitory activities of the compound of the present invention were evaluated. Enzymes were used after preserved at −70° C. HDAC6 enzyme inhibitory activity of the compound of the present invention was measured using HDAC-Glo™ I/II Assay kit (Promega) according to the following experimental method. The test compound diluted with assay buffer (24 mM Tris-HCl (pH 7.5), 1 mM MgCl2, 0.35 mM KCl, 135 mM NaCl, 0.6 mM Glutathione, 0.01% Tween-20) was added to a 384-well plate by each 2 μL. Then, HDAC6 enzyme solution diluted with assay buffer was added thereto by each 4 μL, and the plate was incubated at room temperature for 60 min. After incubated, HDAC substrate-Developer solution prepared according to Promega protocol attached to the assay kit was added to the 384-well plate by each 2 μL, and the enzyme reaction was started. After reacting at room temperature for 20 min, luminescence level was measured using plate reader Envision (PerkinElmer). The inhibitory activity of each compound of Example was calculated as a relative activity value when luminescence level in wells without enzyme is considered as 100% inhibition.

As to `Fc1cccc(Cn2c(Br)cnc2-c2cc(-c3nnc(C(F)F)o3)ccn2)c1` [Example 74a, 2-{5-bromo-1-[(3-fluorophenyl)methyl]-1H-imidazol-2-yl}-4-[5-(difluoromethyl)-1,3,4-oxadiazol-2-yl]pyridine], the inhibition at 10 µM worked out at 99%.
On to `CC(C)(C)OC(=O)N(Cc1ccccc1)N1Cc2ccc(-c3nnc(C(F)F)o3)cc2C1=O` [Example 4c, tert-butyl benzyl {6-[5-(difluoromethyl)-1,3,4-oxadiazol-2-yl]-1-oxo-1,3-dihydro-2H-isoindol-2-yl}carbamate], for which the inhibition at 10 µM came to 100%.
Take `Fc1cc(-c2nnc(C(F)F)o2)cc(-c2nccn2Cc2ccc(Cl)cc2)c1` [Example 22a, 2-(3-{1-[(4-chlorophenyl)methyl]-1H-imidazol-2-yl}-5-fluorophenyl)-5-(difluoromethyl)-1,3,4-oxadiazole]: the inhibition at 10 µM was found to be 99%.
Same read-out and setting: as for `O=C1NN(CC(F)(F)F)Cc2ccc(-c3nnc(C(F)F)o3)cc21` [Example 15b, 7-[5-(difluoromethyl)-1,3,4-oxadiazol-2-yl]-3-(2,2,2-trifluoroethyl)-3,4-dihydrophthalazin-1(2H)-one], the figure is 88%.
On the same count and under the same terms, as for `FC(F)c1nnc(-c2cncc(-c3nccn3Cc3ccccc3)c2)o1` [Example 37a, 3-(1-benzyl-1H-imidazol-2-yl)-5-[5-(difluoromethyl)-1,3,4-oxadiazol-2-yl]pyridine], the figure is 99%; as for `O=C1c2cc(-c3nnc(C(F)F)o3)ccc2CN1N(CC1CCOCC1)CC1CCOCC1` [Example 18c, 2-{bis[(oxan-4-yl)methyl]amino}-6-[5-(difluoromethyl)-1,3,4-oxadiazol-2-yl]-2,3-dihydro-1H-isoindol-1-one], 99%; as for `CN(Cc1ccnc(F)c1)N1Cc2ccc(-c3nnc(C(F)F)o3)cc2C1=O` [Example 51c, 6-[5-(difluoromethyl)-1,3,4-oxadiazol-2-yl]-2-{[(2-fluoropyridin-4-yl)methyl](methyl)amino}-2,3-dihydro-1H-isoindol-1-one], 100%.
On the same count and under the same terms, as for `CN(Cc1cccc(N2CCOCC2)c1)N1Cc2ccc(-c3nnc(C(F)F)o3)cc2C1=O` [Example 61c, 6-[5-(difluoromethyl)-1,3,4-oxadiazol-2-yl]-2-(methyl{[3-(morpholin-4-yl)phenyl]methyl}amino)-2,3-dihydro-1H-isoindol-1-one], the figure is 99%; as for `FC(F)c1nnc(-c2ccnc(-c3nc(Cl)c(Cl)n3Cc3ccccn3)c2)o1` [Example 40a, 2-{4,5-dichloro-1-[(pyridin-2-yl)methyl]-1H-imidazol-2-yl}-4-[5-(difluoromethyl)-1,3,4-oxadiazol-2-yl]pyridine], 98%; as for `CN1C(=O)c2cc(-c3nnc(C(F)F)o3)ccc2CC1c1ccc(F)cc1` (stereo not drawn) [Example 33b, 7-[5-(difluoromethyl)-1,3,4-oxadiazol-2-yl]-3-(4-fluorophenyl)-2-methyl-3,4-dihydroisoquinolin-1(2H)-one], 100%.
Take `COc1ccc(Cn2ccnc2-c2cc(-c3nnc(C(F)F)o3)ccn2)cc1` [Example 80a, 4-[5-(difluoromethyl)-1,3,4-oxadiazol-2-yl]-2-{1-[(4-methoxyphenyl)methyl]-1H-imidazol-2-yl}pyridine]: the inhibition at 10 µM was found to be 104%.
`COc1ccc(C2(C)Oc3ccc(-c4nnc(C(F)F)o4)cc3C(=O)N2C)cc1` (stereo not drawn) [Example 18b, 6-[5-(difluoromethyl)-1,3,4-oxadiazol-2-yl]-2-(4-methoxyphenyl)-2,3-dimethyl-2,3-dihydro-4H-1,3-benzoxazin-4-one]: the inhibition at 10 µM stood at 99%.
Turning to `Cc1nc(Cn2ccnc2-c2cc(F)cc(-c3nnc(C(F)F)o3)c2)sc1C` [Example 65a, 2-(difluoromethyl)-5-(3-{1-[(4,5-dimethyl-1,3-thiazol-2-yl)methyl]-1H-imidazol-2-yl}-5-fluorophenyl)-1,3,4-oxadiazole], the inhibition at 10 µM was determined as 100%.
On to `CN1CCC(COc2cccnc2-c2cc(F)cc(-c3nnc(C(F)F)o3)c2)CC1=O` (stereo not drawn) [Example 14a, 4-{[(2-{3-[5-(difluoromethyl)-1,3,4-oxadiazol-2-yl]-5-fluorophenyl}pyridin-3-yl)oxy]methyl}-1-methylpiperidin-2-one], for which the inhibition at 10 µM was 97%.
Take `O=C1c2cc(-c3nnc(C(F)F)o3)ccc2CN1Nc1ccc(F)cc1` [Example 30c, 6-[5-(difluoromethyl)-1,3,4-oxadiazol-2-yl]-2-(4-fluoroanilino)-2,3-dihydro-1H-isoindol-1-one]: the inhibition at 10 µM was 92%.
On the same count and under the same terms, as for `CN1C(=O)c2cc(-c3nnc(C(F)F)o3)ccc2C[C@]1(C)c1ccc(F)c(F)c1` [Example 50b, (3R)-7-[5-(difluoromethyl)-1,3,4-oxadiazol-2-yl]-3-(3,4-difluorophenyl)-2,3-dimethyl-3,4-dihydroisoquinolin-1(2H)-one], the figure is 101%.
On to `Fc1cccc(Cn2ccnc2-c2cc(-c3nnc(C(F)F)o3)ccn2)c1` [Example 71a, 4-[5-(difluoromethyl)-1,3,4-oxadiazol-2-yl]-2-{1-[(3-fluorophenyl)methyl]-1H-imidazol-2-yl}pyridine], for which the inhibition at 10 µM worked out at 100%.
The same measure, in the same setting: as for `CN1C(=O)c2cc(-c3nnc(C(F)F)o3)ccc2C[C@@]1(C)c1ccc(F)c(F)c1` [Example 49b, (3S)-7-[5-(difluoromethyl)-1,3,4-oxadiazol-2-yl]-3-(3,4-difluorophenyl)-2,3-dimethyl-3,4-dihydroisoquinolin-1(2H)-one], the figure is 42%; as for `Fc1ccc(Cn2ccnc2-c2cc(F)cc(-c3nnc(C(F)F)o3)c2)cc1` [Example 46a, 2-(difluoromethyl)-5-(3-fluoro-5-{1-[(4-fluorophenyl)methyl]-1H-imidazol-2-yl}phenyl)-1,3,4-oxadiazole], 99%; as for `Cn1cc(Cn2ccnc2-c2cc(F)cc(-c3nnc(C(F)F)o3)c2)cn1` [Example 59a, 2-(difluoromethyl)-5-(3-fluoro-5-{1-[(1-methyl-1H-pyrazol-4-yl)methyl]-1H-imidazol-2-yl}phenyl)-1,3,4-oxadiazole], 99%.
As to `Cc1cc(Cn2ccnc2-c2cc(F)cc(-c3nnc(C(F)F)o3)c2)n(C)n1` [Example 64a, 2-(difluoromethyl)-5-(3-{1-[(1,3-dimethyl-1H-pyrazol-5-yl)methyl]-1H-imidazol-2-yl}-5-fluorophenyl)-1,3,4-oxadiazole], the inhibition at 10 µM is 98%.
As for `CN1C(=O)c2cc(-c3nnc(C(F)F)o3)cnc2CC1(C)c1ccc(F)c(F)c1` (single isomer, unassigned; isomer 2) [Example 40b, 3-[5-(difluoromethyl)-1,3,4-oxadiazol-2-yl]-7-(3,4-difluorophenyl)-6,7-dimethyl-7,8-dihydro-1,6-naphthyridin-5(6H)-one (optical isomer 2)], the “HDAC6 inhibitory rate (%) (10 μM)” value (10 µM) was found to be 100%.
`Cn1ccc(OCc2ccccc2)c(-c2cc(F)cc(-c3nnc(C(F)F)o3)c2)c1=O` [Example 35a, 4-(benzyloxy)-3-{3-[5-(difluoromethyl)-1,3,4-oxadiazol-2-yl]-5-fluorophenyl}-1-methylpyridin-2(1H)-one]: the inhibition at 10 µM stood at 98%.
As for `Fc1cc(-c2nnc(C(F)F)o2)cc(-n2nccc2OC2CCOCC2)c1` [Example 47a, 2-(difluoromethyl)-5-(3-fluoro-5-{5-[(oxan-4-yl)oxy]-1H-pyrazol-1-yl}phenyl)-1,3,4-oxadiazole], the inhibition at 10 µM came to 99%.
